Measured values reported in ChEMBL document CHEMBL1201862, “PubChem BioAssay data set” (2004).
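How tested: cells in 96-well plates exposed to compound for 48 hours at five concentrations. At the GI50, growth is halved.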 Active and inactive are the calls of the source. Cut-off read from the data, not from the text of the source: active = GI50 up to about 1.1 µM and inactive = higher.

Tests used:
Experiment in all cases: NCI-60 cell line screen, 48 h
SR = test system: SR
MDA-N = test system: MDA-N
NCI-H23 = test system: NCI-H23
SW-620 = test system: SW-620
Hs-578T = test system: Hs-578T
TK-10 = test system: TK-10
UACC-62 = test system: UACC-62
HCT-116 = test system: HCT-116
UACC-257 = test system: UACC-257
SK-MEL-28 = test system: SK-MEL-28
786-0 = test system: 786-0
NCI-H460 = test system: NCI-H460
ACHN = test system: ACHN
SK-OV-3 = test system: SK-OV-3
HOP-92 = test system: HOP-92
SN12C = test system: SN12C
K562 = test system: K562
M14 = test system: M14
IGROV-1 = test system: IGROV-1
MDA-MB-435 = test system: MDA-MB-435
COLO 205 = test system: COLO 205
OVCAR-3 = test system: OVCAR-3
SNB-19 = test system: SNB-19
PC-3 = test system: PC-3
HOP-62 = test system: HOP-62
CAKI-1 = test system: CAKI-1
RPMI-8226 = test system: RPMI-8226
SK-MEL-5 = test system: SK-MEL-5
EKVX = test system: EKVX
OVCAR-8 = test system: OVCAR-8
SF-295 = test system: SF-295
OVCAR-4 = test system: OVCAR-4
HL-60 = test system: HL-60
T47D = test system: T47D
KM12 = test system: KM12
SF-539 = test system: SF-539
A549 = test system: A549
NCI/ADR-RES = test system: NCI/ADR-RES
HT-29 = test system: HT-29
LOX IMVI = test system: LOX IMVI
MCF7 = test system: MCF7
NCI-H522 = test system: NCI-H522
MDA-MB-231 = test system: MDA-MB-231
UO-31 = test system: UO-31
SNB-75 = test system: SNB-75
MOLT-4 = test system: MOLT-4
SK-MEL-2 = test system: SK-MEL-2
HCT-15 = test system: HCT-15
CCRF-CEM = test system: CCRF-CEM
SF-268 = test system: SF-268
RXF 393 = test system: RXF 393
NCI-H226 = test system: NCI-H226
U-251 = test system: U-251
A498 = test system: A498
DU-145 = test system: DU-145
Malme-3M = test system: Malme-3M
HCC 2998 = test system: HCC 2998

OC(c1cc(C(O)(C(F)(F)F)C(F)(F)F)ncn1)(C(F)(F)F)C(F)(F)F
GI50 (SR): > 10 µM (inactive)
GI50 (MDA-N): > 10 µM (inactive)
GI50 (NCI-H23): > 10 µM (inactive)
GI50 (SW-620): > 10 µM (inactive)
GI50 (Hs-578T): > 10 µM (inactive)
GI50 (TK-10): > 10 µM (inactive)
GI50 (UACC-62): > 10 µM (inactive)
GI50 (HCT-116): > 10 µM (inactive)
GI50 (UACC-257): > 10 µM (inactive)
GI50 (SK-MEL-28): > 10 µM (inactive)
GI50 (786-0): > 10 µM (inactive)
GI50 (NCI-H460): > 10 µM (inactive)
GI50 (ACHN): > 10 µM (inactive)
GI50 (SK-OV-3): > 10 µM (inactive)
GI50 (HOP-92): > 10 µM (inactive)
GI50 (SN12C): > 10 µM (inactive)
GI50 (K562): > 10 µM (inactive)
GI50 (M14): > 10 µM (inactive)
GI50 (IGROV-1): > 10 µM (inactive)
GI50 (MDA-MB-435): > 10 µM (inactive)
GI50 (COLO 205): > 10 µM (inactive)
GI50 (OVCAR-3): > 10 µM (inactive)
GI50 (SNB-19): > 10 µM (inactive)
GI50 (PC-3): > 10 µM (inactive)
GI50 (HOP-62): > 10 µM (inactive)
GI50 (CAKI-1): > 10 µM (inactive)
GI50 (RPMI-8226): > 10 µM (inactive)
GI50 (SK-MEL-5): > 10 µM (inactive)
GI50 (EKVX): > 10 µM (inactive)
GI50 (OVCAR-8): > 10 µM (inactive)
GI50 (SF-295): > 10 µM (inactive)
GI50 (OVCAR-4): > 10 µM (inactive)
GI50 (HL-60): > 10 µM (inactive)
GI50 (T47D): > 10 µM (inactive)
GI50 (KM12): > 10 µM (inactive)
GI50 (SF-539): > 10 µM (inactive)
GI50 (A549): > 10 µM (inactive)
GI50 (NCI/ADR-RES): > 10 µM (inactive)
GI50 (HT-29): > 10 µM (inactive)
GI50 (LOX IMVI): > 10 µM (inactive)
GI50 (MCF7): > 10 µM (inactive)
GI50 (NCI-H522): > 10 µM (inactive)
GI50 (MDA-MB-231): > 10 µM (inactive)
GI50 (UO-31): > 10 µM (inactive)
GI50 (SNB-75): > 10 µM (inactive)
GI50 (MOLT-4): > 10 µM (inactive)
GI50 (SK-MEL-2): > 10 µM (inactive)
GI50 (HCT-15): > 10 µM
GI50 (CCRF-CEM): > 10 µM (inactive)
GI50 (SF-268): > 10 µM (inactive)
GI50 (RXF 393): > 10 µM (inactive)
GI50 (NCI-H226): > 10 µM (inactive)
GI50 (U-251): > 10 µM (inactive)
GI50 (A498): > 10 µM (inactive)
GI50 (DU-145): > 10 µM (inactive)
GI50 (Malme-3M): > 10 µM (inactive)
GI50 (HCC 2998): > 10 µM (inactive)
